Starred links: 1 amine or outer side, 2 acyl side, 3 side chain; linkers in the order of their positions; H or OH if unused. Positions of bridges follow the written chain, without caps; N, C: chain ends. Residues, ends and D or L forms follow the SMILES beside them. *: point of attachment. C18 diacid = O=C(O)CCCCCCCCCCCCCCCCC(=O)*; γGlu = O=C(O)[C@H](CCC(=O)[*:2])N[*:1]
Columns and labels:
[1] = PK after i.v. and s.c. administration to domestic LYD pig; settings: female, domestic LYD pig, pig, in vivo, sc
Method: The purpose of this study was to investigate pharmacokinetic and pharmacodynamic properties after intravenous (i.v.) and subcutaneous (s.c.) administration to Gottingen Minipig and domestic LYD pig, and to estimate bioavailability after s.c. dosing. Quantitative plasma analysis of CNP and cGMP levels were performed as described in
Animals and dosing: The pharmacokinetic and pharmacodynamic studies in Gottingen Minipig or domestic LYD pig were conducted at CRO Minerva Imaging or Novo Nordisk A/S, respectively. CNP compounds were dosed to normal female 1) Gottingen minipigs 6-12 months of age with an average weight of 22 kg or 2) domestic LYD pigs 4-5 months of age with and average weight of 80 kg. At least one week prior to dosing, permanent central venous catheters were implanted for blood sampling and intravenous (i.v.) dosing. For subcutaneous (s.c.) dosing, the pigs were ultrasound scanned and the optimal injection area laterally on the neck marked by a permanent tattoo. An insulin pen (NovoPen Echo or NovoPen 4) and insulin needle (NovoFine 32G/4 mm or NovoTwist 32G/5 mm) were used for accurate deposition of the CNP formulations in the subcutaneous fat tissue with the needle perpendicular to the skin.
CNP compounds were formulated according to the principles in General Methods of Preparation—Method G and were either A) 8 mM sodium phosphate, 250 mM glycerol, pH 6.5, B) 5 mM sodium acetate, 250 mM glycerol, pH 4.0, C) 5 mM sodium acetate, 240 mM propylene glycol, pH=4.0, D) 8 mM sodium phosphate, 250 mM glycerol, pH 7.5 or E) 20 mM sodium phosphate, 223 mM propylene glycol, pH 6.0.
Intravenously, the CNP compounds were dosed at 30-60 nmol/kg to Minipig and 15-43 nmol/kg to domestic pig using formulations A-E. Subcutaneously, the CNP compounds were dosed at 55-62 nmol/kg to Minipig and 20-30 nmol/kg to domestic pig using formulations A-D.
Sampling: Blood samples of approximately 1 mL were collected pre dose and up to 14 days post dose into EDTA-coated tubes (8 mM) for cGMP and CNP compound analysis by LC-MS. In few instances, cGMP was only analysed up to 48 hours post dose after intravenous dosing in domestic LYD pig. The blood samples were kept on wet ice for maximum 30 minutes until centrifugation for 10 minutes at 4° C. and minimum 1500G, and the plasma samples were stored at −20° C. until analysis.
Plasma concentration-time profiles were analyzed by non-compartmental PK analysis using Phoenix WinNonlin 8.1, Pharsight Inc., Mountain View, CA, USA. Calculation of the area under the plasma concentration-time curve (AUC) was based on the “linear up log down” method, and uniform weighting was used for estimation of the terminal rate constant (λz). S.c. bioavailability (F) was calculated as the dose-normalized AUC (AUC/dose) after s.c. administration divided by the AUC/dose after i.v. administration. […]

[2] = Telemetry measurement of heart rate and blood pressure in awake rats; type: in vivo, Sprague Dawley rat; settings: for Heart rate: 30 min, P (vs vehicle) / Heart rate: 12 h, P (vs vehicle) / Mean arterial pressure: 30 min, P (vs vehicle) / Mean arterial pressure: 12 h, P (vs vehicle): paired t test; for Heart rate: 12 h, Mean (bpm) / Mean arterial pressure: 12 h, Mean (mmHg) / Heart rate: 30 min, Mean (bpm) / Mean arterial pressure: 30 min, Mean (mmHg): awake rats; for Heart rate: 12 h, Mean (bpm) / Mean arterial pressure: 12 h, Mean (mmHg): average of first 12 h; for Heart rate: 30 min, Mean (bpm) / Mean arterial pressure: 30 min, Mean (mmHg): first 30 min; for increase in HR: P<0.05
Method: The purpose of the study was to investigate the effect of acute dosing with the CNP compound 9482 (Chem. 137) on mean blood pressure (MAP) and heart rate (HR) in awake rats.
Procedure: The transducers are implanted in Sprague Dawley rats (Charles River) and the rats are allowed a 2-3-week period for recovery. Before surgery, the devices are registered in the software by placing them on a receiver plate and powered on. Sterile saline is added to the transducer catheter before surgery start, and the transmitter is then powered on. The transmitters are placed in the abdomen with the sensor in aorta abdominalis. Isoflurane is used as anaesthetic, and during and after surgery, the rats receive Temgesic (0.05 mg/kg s.c.), Norodyl (5 mg/kg s.c.), and Baytril (10 mg/kg s.c.) as pain relief and to prevent bacterial infection.
Study design: Rats are housed 2/cage (1 with device and 1 as social partner). All animals will have free access to water and food (altromin) throughout the entire study. The rats will be housed in light cycles with light from 6 AM to 6 PM and dark from 6 PM to 6 AM. Eight rats are divided into 2 groups according to a crossover study design.
Telemetry: Each rat is equipped with a transducer (HD-S10 from DSI) capable of measuring blood pressure, heart rate, and activity using Ponemah software with a 100 Hz frequency. During measurements, there should be no disturbances in the room that the rats are housed in to minimize variability in the data. A 4-hour baseline recording will be taken prior to start of the study to capture mean arterial pressure (MAP) and heart rate (HR) patterns in untreated, undisturbed rats. The recording period after drug administration was 24 hours.
Dosing scheme: Rats are dosed in a crossover study design with 4 rats in each group. Each rat is given a washout period of 1 week prior to the next dosing event. Dosing will be intravenous (IV) in the tail vein. Dosing of 9482 was tested in 30, 100, and 300 nmol/kg i.v. in separate experiments. The vehicle consists of 8 mM phosphate, 250 mM glycerol, pH 7.4.
Data analysis and statistics was conducted in Ponemah software and Graphpad prism. For statistics, a paired t test was applied with a confidence level of 95% and P<0.05 denoting statistical significance.

[3] = first 30 min after dosing, 30, 100, or 300 nmol/kg i.v.

Structure (SMILES): CC[C@H](C)[C@@H]1NC(=O)[C@H](CCCNC(=N)N)NC(=O)[C@H](CC(=O)O)NC(=O)[C@H](CC(C)C)NC(=O)[C@H](CCCCN)NC(=O)[C@H](CC(C)C)NC(=O)CNC(=O)[C@H](Cc2ccccc2)NC(=O)[C@@H](NC(=O)CNC(=O)[C@H](CCCCN)NC(=O)[C@H](CO)NC(=O)[C@H](CC(C)C)NC(=O)CNC(=O)[C@H](CCCCN)NC(=O)[C@H](CCCCN)NC(=O)[C@H](CCC(N)=O)NC(=O)[C@H](C)NC(=O)CNC(=O)[C@H](Cc2c[nH]cn2)NC(=O)[C@H](CCC(=O)O)NC(=O)COCCOCCNC(=O)COCCOCCNC(=O)CC[C@H](NC(=O)CCCCCCCCCCCCCCCCC(=O)O)C(=O)O)CSSC[C@@H](C(=O)O)NC(=O)CNC(=O)[C@H](CC(C)C)NC(=O)CNC(=O)[C@H](CO)NC(=O)[C@H](CC(C)C)NC(=O)[C@H](CO)NC(=O)CNC1=O [compound 1235]
- bioavailability [1]: 25%

Structure (SMILES): CC[C@H](C)[C@@H]1NC(=O)[C@H](CCCNC(=N)N)NC(=O)[C@H](CC(=O)O)NC(=O)[C@H](CC(C)C)NC(=O)[C@@H]2CCCN2C(=O)[C@H](CC(C)C)NC(=O)CNC(=O)[C@H](Cc2ccccc2)NC(=O)[C@@H](NC(=O)CNC(=O)[C@H](CO)NC(=O)[C@H](CO)NC(=O)[C@H](CC(C)C)NC(=O)CNC(=O)[C@H](CCCCN)NC(=O)[C@H](CCCCN)NC(=O)[C@H](CCC(N)=O)NC(=O)[C@H](C)NC(=O)CNC(=O)[C@H](CCCCN)NC(=O)[C@H](Cc2ccc(O)cc2)NC(=O)[C@H](CCCCN)NC(=O)[C@H](CCCNC(=N)N)NC(=O)[C@H](C)NC(=O)[C@H](CCC(N)=O)NC(=O)[C@@H]2CCCN2C(=O)[C@H](Cc2c[nH]cn2)NC(=O)[C@H](CCC(=O)O)NC(=O)[C@H](CCC(N)=O)NC(=O)CC[C@H](NC(=O)CC[C@H](NC(=O)CC[C@H](NC(=O)CC[C@H](NC(=O)CC[C@H](NC(=O)CCCCCCCCCCCCCCCCC(=O)O)C(=O)O)C(=O)O)C(=O)O)C(=O)O)C(=O)O)CSSC[C@@H](C(=O)O)NC(=O)CNC(=O)[C@H](CC(C)C)NC(=O)CNC(=O)[C@H](CO)NC(=O)[C@H](CC(C)C)NC(=O)[C@H](CO)NC(=O)CNC1=O [compound 9482] ({C18 diacid-γGlu-γGlu-γGlu-γGlu-γGlu}-QEHPQARKYKGAQKKGLSSGCFGLPLDRIGSLSGLGC-OH; disulfide 21-37)
- Heart rate: 30 min, P (vs vehicle) ([2]; 30 nmol/kg i.v.): ns
- Heart rate: 12 h, P (vs vehicle) ([2]; 30 nmol/kg i.v.): ns
- Mean arterial pressure: 30 min, P (vs vehicle) ([2]; 30 nmol/kg i.v.): ns
- Mean arterial pressure: 12 h, P (vs vehicle) ([2]; 30 nmol/kg i.v.): ns
- Heart rate: 30 min, P (vs vehicle) ([2]; 100 nmol/kg i.v.): ns
- Heart rate: 12 h, P (vs vehicle) ([2]; 100 nmol/kg i.v.): 0.04
- Mean arterial pressure: 30 min, P (vs vehicle) ([2]; 100 nmol/kg i.v.): ns
- Mean arterial pressure: 12 h, P (vs vehicle) ([2]; 100 nmol/kg i.v.): ns
- Heart rate: 30 min, P (vs vehicle) ([2]; 300 nmol/kg i.v.): ns
- Heart rate: 12 h, P (vs vehicle) ([2]; 300 nmol/kg i.v.): 0.03
- Mean arterial pressure: 30 min, P (vs vehicle) ([2]; 300 nmol/kg i.v.): ns
- Mean arterial pressure: 12 h, P (vs vehicle) ([2]; 300 nmol/kg i.v.): ns
- MAP compared to vehicle ([2]; average of the first 12 h, three tested doses i.v.): no differences
- Heart rate: 12 h, Mean (bpm) ([2]; 30 nmol/kg i.v.): 332 bpm
- Mean arterial pressure: 12 h, Mean (mmHg) ([2]; 30 nmol/kg i.v.): 106 mmHg
- Heart rate: 30 min, Mean (bpm) ([2]; 30 nmol/kg i.v.): 356 bpm
- Mean arterial pressure: 30 min, Mean (mmHg) ([2]; 30 nmol/kg i.v.): 116 mmHg
- Heart rate: 12 h, Mean (bpm) ([2]; 100 nmol/kg i.v.): 364 bpm
- Mean arterial pressure: 12 h, Mean (mmHg) ([2]; 100 nmol/kg i.v.): 104 mmHg
- Heart rate: 30 min, Mean (bpm) ([2]; 100 nmol/kg i.v.): 388 bpm
- Mean arterial pressure: 30 min, Mean (mmHg) ([2]; 100 nmol/kg i.v.): 114 mmHg
- Heart rate: 12 h, Mean (bpm) ([2]; 300 nmol/kg i.v.): 355 bpm
- Mean arterial pressure: 12 h, Mean (mmHg) ([2]; 300 nmol/kg i.v.): 102 mmHg
- Heart rate: 30 min, Mean (bpm) ([2]; 300 nmol/kg i.v.): 370 bpm
- Mean arterial pressure: 30 min, Mean (mmHg) ([2]; 300 nmol/kg i.v.): 111 mmHg
- HR compared to vehicle [2, 3]: no difference
- MAP compared to vehicle [2, 3]: no difference
- change in HR ([2]; first 12 h, 30 nmol/kg i.v.): No change
- increase in HR ([2]; first 12 h, 100 nmol/kg i.v.): 8.8±10.1%
- increase in HR ([2]; first 12 h, 300 nmol/kg i.v.): 6.4±6.6%

From patent publication US20240209028A1, “CNP COMPOUNDS” (priority 2022, published 2024)
